Measurements published in US11274144B2, “Compositions and methods for the removal of biofilms” (priority 2013, dated 2022).

Key:
[1] = BIACORE epitope mapping with antiserum of chinchillas immunized with native IHF; type: binding, chinchilla; conditions: BIACORE biosensor
Text: (§1) To test this hypothesis, additional cohorts of chinchillas were immunized with either native full length IHF from E. coli (obtained from Nash) or with native full length IHF from E. coli (obtained from Nash) that had been complexed to an excess of double stranded DNA in order to best mimic how it would be presented in nature.

[2] = BIACORE epitope mapping with antiserum of chinchillas immunized with IHF pre-complexed to DNA; type: binding, chinchilla; conditions: BIACORE biosensor
Text: as §1

IHF = biological target: T1, IHF (Escherichia coli, UniProt P0A6X7+P0A6Y1); experiment: antibody response after subcutaneous immunization of chinchillas (Western blot, ELISA); type: in vivo, E. coli; conditions: chinchilla
T1 construct: IHF promoter purified from E. coli K12 (the full length combination of both IHF subunits); made in house; host or cells: E. coli overproducing strains (lambda PL promoter plasmids, e.g. K5746 / E738)
Text: Each animal received a priming dose followed by two identical boosts delivered at 30-day intervals.

NTHI strain 86-028NP = system: NTHI strain 86-028NP
Protocol: 48 adults were ordered from Rauscher's Chinchilla Ranch (LaRue, Ohio) and were acclimated to the vivarium for 7-10 days prior to the beginning of the study. Prior to TB [transbullar or direct challenge into the middle ear cavity] challenge, baseline otoscopy and tympanometry were performed as well as a limited volume prebleed to collect serum. Chinchillas were anesthetized and 300 μl of NTHI (strain #86-028NP) suspension containing approximately 1000 cfu were introduced into the middle ear space via transbullar challenge. Animals were allowed to recover, then monitored daily for adverse reactions as per IACUC accepted animal use protocols. Routine otoscopy and tympanometry were performed every 2-3 days throughout the study.
Four days after challenge (day +4), chinchillas were anesthetized and a CT scan was performed to visualize biofilms present within the middle ear and to obtain pre-immunization images. The surface of the pinnae were cleaned and hydrated by wiping with a sterile gauze pad moistened with sterile pyrogen free saline. After ˜2 minutes (to allow the pinnae to dry), 50 μl of either the dmLT, IHF (purified E. coli IHF according to Experiment 1)+dmLT, or IHF+rsPiLA+dmLT solution will be added to the pinna and gently massaged in. Three chinchillas per cohort were sacrificed and tissues/samples collected (on days +4, and +11) to begin to determine mechanism of action.
Eleven days after challenge (day +11), the secondary immunization occurred as described above wherein the pinnae are cleaned/hydrated and immunogens were topically administered. Three chinchillas per cohort were sacrificed and tissues/samples collected to begin to determine mechanism of action.
Eighteen days after challenge (day +18), chinchillas were anesthetized and a CT scan were performed to identify any biofilms present, as well as to compare to the pre-immunization CT scans. The animals were then bled to collect serum and euthanized. […] Images were collected and the bulla were washed with 1 ml of sterile saline and re-imaged. The mucosa, along with any biofilm present, were collected from the right bulla and placed in a preweighed tube. These tissues were homogenized, serially diluted, and plated to determine cfu NTHI/mg wet weight tissue. The left bullae were filled with OCT compound and snap frozen for histological analysis.
Images of the left and right middle ear cavities, with resident biofilms, were scrambled and two images per animal were compiled into a single file for ranking by blinded evaluators. The relative amount of biomass remaining within the middle ear of each animal was ranked on a 0 to 4+ scale by blinded reviewers using the scale shown in Table 6 below. Titer ELISAs, cytokine arrays, and Biacore were run on the serum as well as on the collected middle ear effusions. The OCT embedded middle ears were sectioned and stained either for basic morphology and architecture (H&E) or for the presence of IHF using immunohistochemistry and/or immunofluorescence.
For the second animal immunization study, twenty adult chinchillas (body mass between 500-700 g), shown to have no evidence of middle ear disease by tympanometry and video otoscopy, were enrolled and divided into four cohorts of 5 animals each. All animals were again challenged transbullarly with approximately 1000 CFU NTHI strain 86-028NP per bulla. Four days later, after a biofilm formed in the middle ear cavities of these animals, they were immunized by a transcutaneous route (TCI) as described above. Formulations consisted of either: 10 μg IHF admixed with 10 μg dmLT, 10 μg IHF that had been pre-bound to DNA+dmLT, DNA+dmLT, or 10 μg dmLT alone.
Middle ears were again subsequently scored from 0 to 4+ for disease severity upon completion of the study.

dsDNA = conditions: DNA (10 μM) to IHF (5 μM); FIG. 11
Protocol: Middle ears were again subsequently scored from 0 to 4+ for disease severity upon completion of the study. To better assure that the IHF and DNA remained in complex for immunization, synthetic oligonucleotides identical to those used in the published co-crystallization study (see for e.g., Rice et al. (1996) Cell 87(7): 1295-1306) of a high affinity IHF binding site from the bacteriophage lambda recombination site attP at a molar ratio of 2:1 [DNA (10 μM) to IHF (5 μM)] was used.

NTHI biofilms = experiment: synergism on pre-formed NTHI biofilms (FIGS. 14A-14C); type: cell-based
Protocol: To this end the ability to induce augmented structural destabilization of pre-formed NTHI biofilms was assessed when a sub-optimal concentration of anti-IHF was used along with one of each of three unique reagents.

Staphylococcus aureus HU = Staphylococcus aureus HU (Staphylococcus aureus, UniProt Q5HFV0); conditions: cited from earlier work
[3] = biological target: Haemophilus influenzae IHF (Haemophilus influenzae, UniProt P43723); conditions: also known as IhfA5; cited from earlier work
[4] = first study, transcutaneous immunization
[5] = amoxicillin 64 μg/ml, IHF antisera 1:50 dilution

T1 sequence (P0A6X7 2-99): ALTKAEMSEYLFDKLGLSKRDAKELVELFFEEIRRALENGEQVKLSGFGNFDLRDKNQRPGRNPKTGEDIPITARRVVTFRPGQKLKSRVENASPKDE
T1 sequence (P0A6Y1 whole entry): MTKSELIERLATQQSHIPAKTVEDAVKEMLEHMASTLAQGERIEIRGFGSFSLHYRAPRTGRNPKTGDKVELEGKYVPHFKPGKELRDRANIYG

## RPGRNPKTGDVVPVSARRVV (listed as Haemophilus influenzae) [A5, amino acids 61 to 80 of IHF]
[1]
  immune recognition of 20-mer peptides: greatest immune recognition

## FLEEIRLSLESGQDVKLSGF (listed as Haemophilus influenzae) [A3, amino acids 31 to 50 of IHF]
[2]
  immune recognition of 20-mer peptides: greatest recognition

## E. coli IHF: purified E. coli integration host factor, full length combination of both subunits, used as immunogen with adjuvant
IHF; SQ immunization 10 μg with MPL, pre-immune reciprocal titers 100
  reciprocal titer versus isolated IHF by ELISA: 8000
IHF; SQ immunization with MPL, FIG. 13
  antibodies recognizing IHF by Western blot: strong immune response to isolated IHF
NTHI strain 86-028NP; first study, 2 weekly transcutaneous immunizations with dmLT adjuvant, day 18 after challenge, adjuvant only 2.8, 0 to 4+ scale
  mean score for remaining biomass within the middle ears: 1.5
NTHI strain 86-028NP; first study, homogenized biomass cultured on chocolate agar, vs adjuvant alone, FIG. 10B
  bacterial load within remaining biomass: statistically significant reduction of bacterial load
NTHI strain 86-028NP; [4]
  immune response to immunization: strong local and systemic immune response
  secondary sequelae of immunization noted upon necropsy: no animal presented with obvious secondary sequelae
NTHI strain 86-028NP; in vivo
  resolution of experimental otitis media: eradicating experimental otitis media significantly earlier than controls
NTHI strain 86-028NP; second study, TCI, 10 μg with 10 μg dmLT, adjuvant alone 2.2, 0 to 4+ scale, FIG. 12
  mean residual middle ear biomass score: 0.9
dsDNA
  binding of dsDNA (reduced mobility): bound dsDNA

## RGFGSFSLHHRQPRLGRNPK (listed as Haemophilus influenzae) [B4, 46 to 65 of IHF]
[1]
  immune recognition of 20-mer peptides: greatest immune recognition

## CC1(C)S[C@@H]2[C@H](NC(=O)[C@H](N)c3ccc(O)cc3)C(=O)N2[C@H]1C(=O)O [amoxicillin]
NTHI biofilms; [5]
  bacterial cell death in biofilm (vital dye, FIG. 14C): limited bacterial cell death
  effect on architecture/height of pre-formed NTHI biofilm (FIG. 14C): no measurable effect on the architecture

## DNase
NTHI biofilms; DNase at sub-optimal concentration, anti-IHF 1:200 dilution
  effect on pre-formed NTHI biofilm (FIG. 14A): marginal effect

B1: TRL1338: antibody, HC SEQ ID NO: 445, LC SEQ ID NO: 446 (antibody, V domains shown)
VH: QVQLTLRESGPTLVKPTQTLTLTCTFSGFSLSTNGVGVGWIRQPPGKALEWLAIIYWDDDKRYSPSLKSRLTITKDTSKNQVVLTLTNMDPVDTGTYYCAHILGASNYWTGYLRYYFDYWGQGTLVTVST
VL: DIEMTQSPSVSVSPGQTARITCSGEPLAKQYAYWYQQKSGQAPVVVIYKDTERPSGIPERFSGSSSGTTVTLTISGVQAEDEADYHCESGDSSGTYPVFGGGTKLTVL
Staphylococcus aureus HU; SEQ ID NO: 456
  binding for fragment VPAFKAGKALKDAVK: high affinity binding

B2: TRL295: antibody, HC SEQ ID NO: 413, LC SEQ ID NO: 414 (antibody, V domains shown)
VH: QVQLVESGGGLVQPGGSLRLSCAASGFPFSSYAMSWVRQAPGKGLEWVSAISGNGADSYYADSVKGRFTTSRDKSKNTVYLQMNRLRAEDTAVYYCAKDMRRYHYDSSGLHFWGQGTLVTVSS
VL: DIELTQAPSVSVYPGQTARITCSGDALPKQYAYWYQQKPGQAPVVVIYKDSERPSGISERFSGSSSGTTVTLTISGVQAGDEADYYCQSVDTSVSYYVVFGGGTKLTVL
[3]
  epitope bound: bind to residues 61-80

B3: TRL1330: antibody, HC SEQ ID NO: 439, LC SEQ ID NO: 440 (antibody, V domains shown)
VH: QVQLVESGTEVKNPGASVKVSCTASGYKFDEYGVSWVRQSPGQGLEWMGWISVYNGKTNYSQNFQGRLTLTTETSTDTAYMELTSLRPDDTAVYYCATDKNWFDPWGPGTLVTVSS
VL: DIVLTQSPSASGSPGQSITISCTGTNTDYNYVSWYQHHPGKAPKVIIYDVKKRPSGVPSRFSGSRSGNTATLTVSGLQTEDEADYYCVSYADNNHYVFGSGTKVTVL
Staphylococcus aureus HU; SEQ ID NO: 455
  binding for fragment […]: high affinity binding
